PubChem BioAssay (NCI)
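Interpolation was linear, between the two tested concentrations surrounding the appropriate level; five concentrations were tested over 48 hours in 96-well plates. GI50 marks 50% less growth. TGI denotes the concentration required for complete inhibition of growth.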

Tests used:
Assay in all cases: NCI tumour cell line growth inhibition, 48 h
HCT-15 colon = tested on: HCT-15 colon
UO-31 renal = tested on: UO-31 renal
RPMI-8226 leukemia = tested on: RPMI-8226 leukemia
ACHN renal = tested on: ACHN renal
T-47D breast = tested on: T-47D breast
CAKI-1 renal = tested on: CAKI-1 renal
OVCAR-8 ovarian = tested on: OVCAR-8 ovarian
SF-268 CNS = tested on: SF-268 CNS
U251 CNS = tested on: U251 CNS
NCI-H522 lung = tested on: NCI-H522 lung
MOLT-4 leukemia = tested on: MOLT-4 leukemia
A498 renal = tested on: A498 renal
SK-MEL-28 melanoma = tested on: SK-MEL-28 melanoma
HCT-116 colon = tested on: HCT-116 colon
SNB-19 CNS = tested on: SNB-19 CNS
SF-539 CNS = tested on: SF-539 CNS
SW-620 colon = tested on: SW-620 colon
KM12 colon = tested on: KM12 colon
SR leukemia = tested on: SR leukemia
A549 NSCLC = tested on: A549 NSCLC
MDA-MB-435 = tested on: MDA-MB-435
OVCAR-4 ovarian = tested on: OVCAR-4 ovarian
HT29 colon = tested on: HT29 colon
MDA-MB-231 breast = tested on: MDA-MB-231 breast
COLO 205 colon = tested on: COLO 205 colon
PC-3 prostate = tested on: PC-3 prostate
BT-549 breast = tested on: BT-549 breast
NCI-H226 lung = tested on: NCI-H226 lung
SK-MEL-2 melanoma = tested on: SK-MEL-2 melanoma
LOX IMVI melanoma = tested on: LOX IMVI melanoma
786-0 renal = tested on: 786-0 renal
K-562 leukemia = tested on: K-562 leukemia
EKVX NSCLC = tested on: EKVX NSCLC
TK-10 renal = tested on: TK-10 renal
HL-60(TB) leukemia = tested on: HL-60(TB) leukemia
IGROV1 ovarian = tested on: IGROV1 ovarian
NCI-H460 lung = tested on: NCI-H460 lung
SK-OV-3 ovarian = tested on: SK-OV-3 ovarian
HCC-2998 colon = tested on: HCC-2998 colon
M14 melanoma = tested on: M14 melanoma
SF-295 CNS = tested on: SF-295 CNS
NCI-H23 lung = tested on: NCI-H23 lung
UACC-257 melanoma = tested on: UACC-257 melanoma
DU-145 prostate = tested on: DU-145 prostate
HOP-62 NSCLC = tested on: HOP-62 NSCLC
SK-MEL-5 melanoma = tested on: SK-MEL-5 melanoma
CCRF-CEM leukemia = tested on: CCRF-CEM leukemia
MALME-3M melanoma = tested on: MALME-3M melanoma
NCI/ADR-RES ovarian = tested on: NCI/ADR-RES ovarian
OVCAR-5 ovarian = tested on: OVCAR-5 ovarian
HS 578T breast = tested on: HS 578T breast
UACC-62 melanoma = tested on: UACC-62 melanoma
RXF 393 renal = tested on: RXF 393 renal
OVCAR-3 ovarian = tested on: OVCAR-3 ovarian
MCF7 breast = tested on: MCF7 breast
SN12C renal = tested on: SN12C renal
SNB-75 CNS = tested on: SNB-75 CNS

How did the GI50 (HCT-15 colon) turn out when `CC(C)n1nc(C#Cc2cccc(NC(=O)c3cccc(C(F)(F)F)c3)c2)c2c(N)ncnc21` was run?
The GI50 was 2.41 µM.

What about the TGI (HCT-15 colon) of the same compound?
The TGI was greater than 100 µM.

What about the GI50 (UO-31 renal) of the same compound?
Its GI50 is 0.601 µM.

What about the TGI (UO-31 renal) of the same compound?
The TGI was 6.1 µM.

And the GI50 (RPMI-8226 leukemia)?
Its GI50 is 2.26 µM.

And the TGI (RPMI-8226 leukemia)?
Its TGI is 16.7 µM.

What about the GI50 (ACHN renal) of the same compound?
The GI50 was 1.01 µM.

And the TGI (ACHN renal)?
The TGI was 5.72 µM.

And the GI50 (T-47D breast)?
Its GI50 is 3.22 µM.

What about the TGI (T-47D breast) of the same compound?
The TGI was 17.5 µM.

And the GI50 (CAKI-1 renal)?
The GI50 was 2.06 µM.

What about the TGI (CAKI-1 renal) of the same compound?
The TGI was 12.8 µM.

And the GI50 (OVCAR-8 ovarian)?
Its GI50 is 3.15 µM.

And the TGI (OVCAR-8 ovarian)?
Its TGI is greater than 100 µM.

And the GI50 (SF-268 CNS)?
Its GI50 is 2.15 µM.

What about the TGI (SF-268 CNS) of the same compound?
The TGI was 10.4 µM.

And the GI50 (U251 CNS)?
Its GI50 is 3.05 µM.

What about the TGI (U251 CNS) of the same compound?
The TGI was 69.4 µM.

And the GI50 (NCI-H522 lung)?
The GI50 was 1.83 µM.

What about the TGI (NCI-H522 lung) of the same compound?
The TGI was 9.11 µM.

What about the GI50 (MOLT-4 leukemia) of the same compound?
The GI50 was 1.36 µM.

What about the TGI (MOLT-4 leukemia) of the same compound?
Its TGI is 61.3 µM.

What about the GI50 (A498 renal) of the same compound?
The GI50 was 1.07 µM.

And the TGI (A498 renal)?
The TGI was 2.51 µM.

What about the GI50 (SK-MEL-28 melanoma) of the same compound?
Its GI50 is 0.368 µM.

What about the TGI (SK-MEL-28 melanoma) of the same compound?
The TGI was 6.82 µM.

What about the GI50 (HCT-116 colon) of the same compound?
Its GI50 is 0.308 µM.

And the TGI (HCT-116 colon)?
The TGI was 3.89 µM.

What about the GI50 (SNB-19 CNS) of the same compound?
The GI50 was 4.21 µM.

And the TGI (SNB-19 CNS)?
Its TGI is greater than 100 µM.

And the GI50 (SF-539 CNS)?
The GI50 was 0.445 µM.

And the TGI (SF-539 CNS)?
Its TGI is 2.33 µM.

What about the GI50 (SW-620 colon) of the same compound?
Its GI50 is 2.2 µM.

What about the TGI (SW-620 colon) of the same compound?
Its TGI is greater than 100 µM.

And the GI50 (KM12 colon)?
The GI50 was 3.41 µM.

What about the TGI (KM12 colon) of the same compound?
The TGI was greater than 100 µM.

And the GI50 (SR leukemia)?
Its GI50 is 3.67 µM.

What about the TGI (SR leukemia) of the same compound?
The TGI was greater than 100 µM.

And the GI50 (A549 NSCLC)?
Its GI50 is 3.29 µM.

And the TGI (A549 NSCLC)?
The TGI was 64.4 µM.

What about the GI50 (MDA-MB-435) of the same compound?
Its GI50 is 1.67 µM.

What about the TGI (MDA-MB-435) of the same compound?
Its TGI is greater than 100 µM.

And the GI50 (OVCAR-4 ovarian)?
Its GI50 is 3.54 µM.

What about the TGI (OVCAR-4 ovarian) of the same compound?
Its TGI is 34.4 µM.

What about the GI50 (HT29 colon) of the same compound?
The GI50 was 0.485 µM.

What about the TGI (HT29 colon) of the same compound?
Its TGI is greater than 100 µM.

And the GI50 (MDA-MB-231 breast)?
The GI50 was 0.256 µM.

And the TGI (MDA-MB-231 breast)?
Its TGI is 2.07 µM.

And the GI50 (COLO 205 colon)?
The GI50 was 0.524 µM.

And the TGI (COLO 205 colon)?
The TGI was 5.73 µM.

And the GI50 (PC-3 prostate)?
The GI50 was 2.91 µM.

And the TGI (PC-3 prostate)?
Its TGI is greater than 100 µM.

What about the GI50 (BT-549 breast) of the same compound?
Its GI50 is 2.46 µM.

And the TGI (BT-549 breast)?
Its TGI is 47.7 µM.

What about the GI50 (NCI-H226 lung) of the same compound?
The GI50 was 0.99 µM.

And the TGI (NCI-H226 lung)?
Its TGI is 6.35 µM.

What about the GI50 (SK-MEL-2 melanoma) of the same compound?
The GI50 was 0.308 µM.

What about the TGI (SK-MEL-2 melanoma) of the same compound?
The TGI was 1.96 µM.

And the GI50 (LOX IMVI melanoma)?
Its GI50 is 0.204 µM.

What about the TGI (LOX IMVI melanoma) of the same compound?
Its TGI is 1.04 µM.

What about the GI50 (786-0 renal) of the same compound?
Its GI50 is 2.65 µM.

And the TGI (786-0 renal)?
Its TGI is 14.3 µM.

And the TGI (K-562 leukemia)?
The TGI was greater than 100 µM.

What about the GI50 (EKVX NSCLC) of the same compound?
Its GI50 is 3.46 µM.

What about the TGI (EKVX NSCLC) of the same compound?
Its TGI is greater than 100 µM.

What about the GI50 (TK-10 renal) of the same compound?
Its GI50 is 1.78 µM.

And the TGI (TK-10 renal)?
Its TGI is 4.45 µM.

What about the GI50 (HL-60(TB) leukemia) of the same compound?
The GI50 was 0.156 µM.

What about the TGI (HL-60(TB) leukemia) of the same compound?
Its TGI is greater than 100 µM.

What about the GI50 (IGROV1 ovarian) of the same compound?
The GI50 was 0.333 µM.

And the TGI (IGROV1 ovarian)?
The TGI was 1.59 µM.

And the GI50 (NCI-H460 lung)?
The GI50 was 3 µM.

What about the TGI (NCI-H460 lung) of the same compound?
The TGI was greater than 100 µM.

What about the GI50 (SK-OV-3 ovarian) of the same compound?
The GI50 was 1.98 µM.

What about the TGI (SK-OV-3 ovarian) of the same compound?
The TGI was 4.55 µM.

And the GI50 (HCC-2998 colon)?
Its GI50 is 2.36 µM.

And the TGI (HCC-2998 colon)?
Its TGI is 75.7 µM.

And the GI50 (M14 melanoma)?
Its GI50 is 0.309 µM.

What about the TGI (M14 melanoma) of the same compound?
Its TGI is 2.03 µM.

What about the GI50 (SF-295 CNS) of the same compound?
Its GI50 is 2.88 µM.

What about the TGI (SF-295 CNS) of the same compound?
Its TGI is greater than 100 µM.

And the GI50 (NCI-H23 lung)?
The GI50 was 1.95 µM.

And the TGI (NCI-H23 lung)?
Its TGI is 22.8 µM.

And the GI50 (UACC-257 melanoma)?
Its GI50 is 0.538 µM.

What about the TGI (UACC-257 melanoma) of the same compound?
The TGI was 5.68 µM.

What about the GI50 (DU-145 prostate) of the same compound?
Its GI50 is 2.78 µM.

What about the TGI (DU-145 prostate) of the same compound?
The TGI was 12.3 µM.

What about the GI50 (HOP-62 NSCLC) of the same compound?
The GI50 was 1.11 µM.

And the TGI (HOP-62 NSCLC)?
The TGI was 6.71 µM.

And the GI50 (SK-MEL-5 melanoma)?
Its GI50 is 2.55 µM.

And the TGI (SK-MEL-5 melanoma)?
The TGI was 30.8 µM.

What about the GI50 (CCRF-CEM leukemia) of the same compound?
Its GI50 is 2.73 µM.

What about the TGI (CCRF-CEM leukemia) of the same compound?
The TGI was greater than 100 µM.

And the GI50 (MALME-3M melanoma)?
The GI50 was 0.203 µM.

What about the TGI (MALME-3M melanoma) of the same compound?
The TGI was 4.41 µM.

What about the GI50 (NCI/ADR-RES ovarian) of the same compound?
The GI50 was 2.83 µM.

What about the TGI (NCI/ADR-RES ovarian) of the same compound?
The TGI was greater than 100 µM.

What about the GI50 (OVCAR-5 ovarian) of the same compound?
Its GI50 is 1.36 µM.

What about the TGI (OVCAR-5 ovarian) of the same compound?
The TGI was 27.7 µM.

What about the GI50 (HS 578T breast) of the same compound?
Its GI50 is 0.216 µM.

What about the TGI (HS 578T breast) of the same compound?
Its TGI is 1.88 µM.

And the GI50 (UACC-62 melanoma)?
The GI50 was 0.19 µM.

What about the TGI (UACC-62 melanoma) of the same compound?
The TGI was 1.24 µM.

What about the GI50 (RXF 393 renal) of the same compound?
The GI50 was 1.02 µM.

And the TGI (RXF 393 renal)?
The TGI was 2.49 µM.

And the GI50 (OVCAR-3 ovarian)?
The GI50 was 2.96 µM.

What about the TGI (OVCAR-3 ovarian) of the same compound?
Its TGI is 28.9 µM.

And the GI50 (MCF7 breast)?
Its GI50 is 7.5 µM.

And the TGI (MCF7 breast)?
The TGI was greater than 100 µM.

What about the GI50 (SN12C renal) of the same compound?
The GI50 was 1.28 µM.

And the TGI (SN12C renal)?
The TGI was 8.17 µM.

And the GI50 (SNB-75 CNS)?
The GI50 was 1.75 µM.

What about the TGI (SNB-75 CNS) of the same compound?
The TGI was 3.89 µM.
